Ends that are not written are not given here.
Assays:
Type in all cases: cell-based
[1] = system: hTNF-α mRNA; assay: Knockdown of hTNF-α gene expression by siRNA/peptide complexes in LPS-stimulated human monocytes (branch DNA mRNA); settings: for siRNA Knockdown Activity: 20 nM siRNA
Description: Specifically, the ability of siRNA/peptide complexes to modulate expression of the human tumor necrosis factor-α (hTNF-α) gene was assessed. The significance of targeting the hTNF-α gene is that it is implicated in mediating the occurrence or progression of rheumatoid arthritis (RA) when over-expressed in human and other mammalian subjects.
Human monocytes were used as a model system to determine the effect of siRNA/peptide complexes on hTNF-α gene expression. Qneg represents a random siRNA sequence and functioned as the negative control. […] A19S21, 21/21 and LC20 are siRNAs that target hTNF-α mRNA.
Healthy human blood was purchased from Golden West Biologicals (CA), the peripheral blood mononuclear cells (PBMC) were purified from the blood using Ficoll-Pague plus (Amersham) gradient. Human monocytes were then purified from the PBMCs fraction using magnetic microbeads from Miltenyi Biotech. Isolated human monocytes were resuspended in IMDM supplemented with 4 mM glutamine, 10% FBS, 1× non-essential amino acid and 1× pen-strep, and stored at 4 C until use.
In a 96 well flat bottom plate, human monocytes were seeded at 100 K/well/100 μl in OptiMEM medium (Invitrogen). Exemplary polynucleotide delivery-enhancing polypeptides were mixed with 20 nM siRNA at a molar ratio of 1 to 5 in OptiMEM medium at room temperature for 5 minutes. At the end of incubation, FBS was added to the mixture (final 3%), and 50 μl of the mixture was added to the cells. The cells were incubated at 37° C. for 3 hours. After incubation, the cells were transferred to V-bottom plate and pelleted at 1500 rpm for 5 min. The cells were resuspended in growth medium (IMDM with glutamine, non-essential amino acid, and pen-strep). After an overnight incubation, the monocytes were stimulated by application of LPS (Sigma) at 1 ng/ml for 3 hours to increase expression of TNF-α expression levels. After induction by LPS, cells were collected as above for mRNA quantification, and supernatant was saved for protein quantification if desired.
For mRNA measurement, branch DNA technology from Genospectra (CA) was used according to manufacturer's specification. To quantitate mRNA level in the cells, both house keeping gene (cypB) and target gene (TNF-α) mRNA were measured, and the reading for TNF-α was normalized with cypB to obtain relative luminescence unit. […]

[2] = system: mouse tail fibroblast (MTF) cells; assay: Polypeptide mediated siRNA delivery screen (Cy5-siRNA cell-uptake and MFI), Example 17; settings: Cy5-conjugated siRNA
Description: siRNA uptake by cells was assessed by flow cytometry (refer to Example 2 for details). Uptake was expressed as a percentage calculated by dividing the number of cells containing Cy5-conjugated siRNA by the total number of transfected and untransfected cells in culture. Mean Fluorescence Intensity (MFI) was measured by flow cytometry and determined the amount of Cy5-conjugated siRNA found within cells. The MFI value directly correlates with the amount of Cy5-conjugated siRNA within the cell, thus, a higher MFI value indicates a greater number of Cy5-conjugated siRNA within the cells.

[3] = system: human monocytes; assay: Cytotoxicity with human monocytes
[4] = siRNA 21/21 MD8, siRNA:Peptide Ratio 1:5, human monocytes
[5] = siRNA 21/21 MD8, siRNA:Peptide Ratio 1:10, human monocytes
[6] = siRNA A19S21 MD8, siRNA:Peptide Ratio 1:5, human monocytes
[7] = siRNA A19S21 MD8, siRNA:Peptide Ratio 1:10, human monocytes
[8] = siRNA LC20, siRNA:Peptide Ratio 1:5, human monocytes
[9] = siRNA LC20, siRNA:Peptide Ratio 1:10, human monocytes

Row | Substance | hTNF-α knockdown relative to Qneg complexed with the same polypeptide, in words ([1]; all three siRNAs, ratios of 1:5 and 1:10, human monocytes) | siRNA Knockdown Activity [1, 4] | siRNA Knockdown Activity [1, 5] | siRNA Knockdown Activity [1, 6] | siRNA Knockdown Activity [1, 7] | siRNA Knockdown Activity [1, 8] | siRNA Knockdown Activity [1, 9] | MFI measurement relative to the PN643 positive control, in words [2] | cytotoxicity effects [3] | hTNF-α mRNA knockdown relative to the Qneg/PN680 control complex, in words ([1]; any of the hTNF-α specific siRNAs at a 1:5 ratio)
1 | KKKKKRFSFKKSFKLSGFSFKKNKK-amide (KKKKKRFSFKKSFKLSGFSFKKNKK-NH2) [PN681, MARCKS] | little to no knockdown activity | − | − | +/− (the peptide/siRNA complex had a knockdown activity of approximately 90% of the Qneg negative control siRNA (10% reduction in mRNA levels compared to the Qneg negative control)) | +/− (the peptide/siRNA complex had a knockdown activity of approximately 90% of the Qneg negative control siRNA (10% reduction in mRNA levels compared to the Qneg negative control)) | − | − | double |  | 
2 | RKESYSVYVYKVLKQ-NH2 [PN766] |  |  |  |  |  |  |  |  | No cytotoxicity effects were observed | 
3 | RSVCRQIKICRRRGGCYYKCTNRPY-amide (RSVCRQIKICRRRGGCYYKCTNRPY-NH2; cysteine pairing not given here) [PN680, Androctonin] |  | + (the peptide/siRNA complex had knockdown activity of 80% of the Qneg negative control siRNA (20% reduction in mRNA levels compared to the Qneg negative control)) | +/− (the peptide/siRNA complex had a knockdown activity of approximately 90% of the Qneg negative control siRNA (10% reduction in mRNA levels compared to the Qneg negative control)) | + (the peptide/siRNA complex had knockdown activity of 80% of the Qneg negative control siRNA (20% reduction in mRNA levels compared to the Qneg negative control)) | +/− (the peptide/siRNA complex had a knockdown activity of approximately 90% of the Qneg negative control siRNA (10% reduction in mRNA levels compared to the Qneg negative control)) | + (the peptide/siRNA complex had knockdown activity of 80% of the Qneg negative control siRNA (20% reduction in mRNA levels compared to the Qneg negative control)) | + (the peptide/siRNA complex had knockdown activity of 80% of the Qneg negative control siRNA (20% reduction in mRNA levels compared to the Qneg negative control)) | comparable |  | significant knockdown activity
